Laboratory results as given in patent US4080466A, “Pharmaceutical compositions containing 4-hydroxyl-1,3-dithiolan-2-ylidene malonates” (Nihon Nohyaku Co., Ltd., priority 1976, dated 1978).

Legend:
[1] = acute oral toxicity; settings: mouse, in vivo, male mice
From the text: Further, these compounds have no detrimental effects on test animals administered therewith, so far as the doses thereof are within an ordinary administration range.

[2] = tested on: acute liver damage induced by carbon tetrachloride; experiment: Protective Effect on Acute Liver Damage associated with Centrilobular Necrosis (carbon tetrachloride); assay type: in vivo, mice (dd-strain); settings: 250 mg/kg oral, average of 5 to 6 mice; for Liver damage index: 6 h before CCl4 (0.05 ml/kg oral), score 0 Normal, 2 slight, 4 clear, 6 heavy damage; for p-GPT (plasma glutamic-pyruvic transaminase activity): 6 h before CCl4, 24 h after CCl4, values over 1,000 regarded as 1,000
From the text: Carbon tetrachloride (CCl4) administration induces centrilobular necrosis of the liver associated with loss of diphosphopyridine nucleotide, hepatic glycogen, coenzyme A and increase in neutral fat. Release of several enzymes from the hepatocytes, and increase of enzyme activities in the plasma are recognized as the result of the damage of the liver. A suitable means for evaluating the degree of damage induced by CCl4 or the degree of protection afforded by drugs is to study the plasma glutamic-pyruvic transminase (p-GPT) activity.
Methods: The test compounds were dissolved or suspended in olive oil and administered orally at the dose of 250 mg/kg to the mice (Four-week-old male mice-dd strain). After 6 hours, CCl4 was administered orally (0.05 ml/kg as olive oil solution). Animals were killed 24 hours after CCl4 administration, and the liver was grossly observed. The plasma was obtained by centrifugation. Activities of p-GPT were determined by the method of Reitman and Frankel and expressed in Karmen units.
Score for liver damage index was as follows:
4 Clearly observable damage
Each figure indicates average of 5 to 6 mice. Values of p-GPT over 1,000 Karmen unit regarded as 1,000 for calculation of average for convenience.

[3] = tested on: acute liver damage induced by allyl alcohol; experiment: Protective Effect on Acute Liver Damage associated with Periportal Necrosis (allyl alcohol), BSP test; assay type: in vivo, mouse (dd-strain); settings: 100 mg/kg oral, 6 h before allyl alcohol (0.075 mg/kg oral); 24 h
Method: The compund of this invention or anethol trithion was orally administered to the male mouse (4 week-old, dd-strain) at the dose of 100 mg/kg. Six hours after it, allyl alcohol was orally administered at the dose of 0.075 mg/kg. Twenty four hours after it, the animals were sacrificed to collect blood samples.

[4] = tested on: acute hepatitis induced by D-galactosamine; experiment: Protective Effect on Acute Hepatitis associated with Mesenchymal Reaction and Discrete Lobular Necrosis (D-galactosamine); assay type: in vivo, rat (SD strain); settings: 100 mg/kg oral, 6 h before D-galactosamine 600 mg/kg i.p. (+ 300 mg/kg)
Method: D-Galactosamine is a compound which induces a discrete lobular necrosis associated with mesenchymal reaction similar to the change observed in human viral hepatitis, so that it is frequently used in producing a model for viral hepatitis.
The compound of this invention or anethol trithion was administered orally to the male rat (SD strain) at the dose of 100 mg/kg. Six hours after it, D-galactosamine was intraperitoneally administered at the dose of 600 mg/kg. Four hours after it, an additional 300 mg/kg was administered intraperitoneally. Eight hours after it, the animals were sacrificed to collect the blood samples. P-GPT activity and triglyceride in the liver were measured to evaluate the effect of the compound of this invention.

[5] = tested on: glucose metabolism; experiment: Effect on glucose metabolism; assay type: in vivo, mice; settings: 250 mg/kg oral, 6 h before glucose 4.0 g/kg
Method: The test compounds dissolved in olive oil and administered orally at the dose of 250 mg/kg to the mice. After 6 hours, 4.0 g/kg of glucose was orally administered. The same amount of glucose was given to the control animals. 0.02 ml of blood was taken from caudal vein of the mice at 30, 60, 90 and 120 min. after glucose administration. Blood sugar was measured by the procedure of Somogyi-Nelson. Number of animals used was 5 to 6 mice for each treatment.

[6] = tested on: glucose metabolism; experiment: Effect on glucose metabolism; assay type: in vivo, mice; settings: 250 mg/kg oral, 6 h before glucose 4.0 g/kg; 0 min

| SMILES | LD50 [1] | Liver damage index [2] | p-GPT (plasma glutamic-pyruvic transaminase activity) [2] | BSP (residual quantity) [3] | Triglyceride in liver [4] | p-GPT [4] | Blood Sugar ([5]; 30 min) | Blood Sugar ([5]; 60 min) | Blood Sugar ([5]; 90 min) | Blood Sugar ([5]; 120 min) | Blood Sugar [6] |
| --- | --- | --- | --- | --- | --- | --- | --- | --- | --- | --- | --- |
| CC(C)OC(=O)C(C(=O)OC(C)C)=C1SCC(O)S1 (stereo not shown) [Compound 2, Diisopropyl 4-hydroxy-1,3-dithiolan-2-ylidene malonate] | > 6590 mg/kg | 0.1 | 20 Karmen units | 17.1 ± 3.8 | 7.0 ± 0.82 mg/g | 73 ± 13 Karmen unit | 247 ± 20.2 mg/dL | 212 ± 13.1 mg/dL | 177 ± 15.5 mg/dL | 130 ± 10.8 mg/dL | 136 ± 12.3 mg/dL |
| CCOC(=O)C(C(=O)OC(C)C)=C1SCC(O)S1 (stereo not shown) [Compound 4, Ethyl isopropyl 4-hydroxy-1,3-dithiolan-2-ylidene malonate] | – | 0.1 | 40 Karmen units | – | – | – | – | – | – | – | – |
